Results taken from ChEMBL document CHEMBL1136112, “Novel inhibitors of procollagen C-proteinase. Part 2: glutamic acid hydroxamates” (Bioorg Med Chem Lett, 2003).

What was measured:
[1] = biological target: T1, Bone morphogenetic protein 1 (Homo sapiens, UniProt P13497); assay: Ability to inhibit procollagen C-terminal proteinase (PCP) tested in vitro
T1 sequence (P13497 whole entry): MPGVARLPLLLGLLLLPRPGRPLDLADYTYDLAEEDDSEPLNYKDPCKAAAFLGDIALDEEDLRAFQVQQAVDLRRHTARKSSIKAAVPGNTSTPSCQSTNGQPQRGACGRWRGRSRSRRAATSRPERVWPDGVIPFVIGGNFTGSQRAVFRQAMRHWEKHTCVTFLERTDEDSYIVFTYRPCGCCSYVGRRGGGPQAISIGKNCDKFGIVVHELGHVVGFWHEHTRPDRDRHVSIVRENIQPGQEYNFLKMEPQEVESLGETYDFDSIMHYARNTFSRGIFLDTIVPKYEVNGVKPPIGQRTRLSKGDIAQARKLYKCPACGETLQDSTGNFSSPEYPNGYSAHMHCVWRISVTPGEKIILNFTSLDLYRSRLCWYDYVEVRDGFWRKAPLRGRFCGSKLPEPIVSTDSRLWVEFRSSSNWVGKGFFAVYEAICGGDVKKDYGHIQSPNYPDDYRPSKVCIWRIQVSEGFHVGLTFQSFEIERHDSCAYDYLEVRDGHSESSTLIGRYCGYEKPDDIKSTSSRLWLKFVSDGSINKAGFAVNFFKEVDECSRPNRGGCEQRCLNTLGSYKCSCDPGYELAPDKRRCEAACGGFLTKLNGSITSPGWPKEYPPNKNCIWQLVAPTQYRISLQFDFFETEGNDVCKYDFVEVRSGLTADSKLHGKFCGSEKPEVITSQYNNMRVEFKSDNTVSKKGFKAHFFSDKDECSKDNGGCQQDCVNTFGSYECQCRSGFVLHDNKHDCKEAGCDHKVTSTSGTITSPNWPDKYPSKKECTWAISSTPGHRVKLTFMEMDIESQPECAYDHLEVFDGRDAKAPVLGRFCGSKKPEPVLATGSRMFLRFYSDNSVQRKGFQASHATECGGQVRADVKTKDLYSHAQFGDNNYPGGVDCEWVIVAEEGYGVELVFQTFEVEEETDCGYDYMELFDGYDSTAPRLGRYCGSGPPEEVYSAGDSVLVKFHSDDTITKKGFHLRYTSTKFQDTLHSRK

[2] = biological target: Neutrophil collagenase (Homo sapiens, UniProt P22894); assay: Inhibition of MMP-8
[3] = biological target: T2, Interstitial collagenase (Homo sapiens, UniProt P03956); assay: Inhibition of matrix metalloprotease-1
T2 sequence (P03956 whole entry): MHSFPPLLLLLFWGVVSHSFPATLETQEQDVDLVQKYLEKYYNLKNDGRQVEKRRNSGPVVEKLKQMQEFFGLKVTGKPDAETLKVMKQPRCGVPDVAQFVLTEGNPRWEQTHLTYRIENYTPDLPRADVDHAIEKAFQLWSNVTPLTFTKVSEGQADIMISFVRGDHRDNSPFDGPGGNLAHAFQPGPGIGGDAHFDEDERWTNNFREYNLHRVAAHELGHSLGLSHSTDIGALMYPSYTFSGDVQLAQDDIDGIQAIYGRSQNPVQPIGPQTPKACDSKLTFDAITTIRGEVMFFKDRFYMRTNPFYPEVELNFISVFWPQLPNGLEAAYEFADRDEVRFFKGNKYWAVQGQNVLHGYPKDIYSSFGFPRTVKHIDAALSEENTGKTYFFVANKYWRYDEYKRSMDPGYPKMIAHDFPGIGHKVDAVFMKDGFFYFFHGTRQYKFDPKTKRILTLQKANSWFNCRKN

Neutrophil collagenase, sequence (P22894 whole entry): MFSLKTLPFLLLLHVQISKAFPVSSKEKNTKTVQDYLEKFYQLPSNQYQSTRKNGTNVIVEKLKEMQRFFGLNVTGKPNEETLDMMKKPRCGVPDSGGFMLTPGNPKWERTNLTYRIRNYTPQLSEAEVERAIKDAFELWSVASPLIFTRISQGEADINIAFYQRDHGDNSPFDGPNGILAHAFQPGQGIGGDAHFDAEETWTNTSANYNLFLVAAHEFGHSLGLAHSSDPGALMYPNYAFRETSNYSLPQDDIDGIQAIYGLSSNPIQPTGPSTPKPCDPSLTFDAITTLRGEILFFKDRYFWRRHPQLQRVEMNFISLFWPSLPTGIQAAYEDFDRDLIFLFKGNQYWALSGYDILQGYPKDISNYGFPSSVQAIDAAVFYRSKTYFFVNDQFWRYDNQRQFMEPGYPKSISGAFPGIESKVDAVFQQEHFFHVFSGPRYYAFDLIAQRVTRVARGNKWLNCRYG

| SMILES | Ki [1] [nM] | Ki [2] [nM] | Ki [3] [nM] |
| --- | --- | --- | --- |
| COC(=O)CC[C@H](C(=O)NO)N(Cc1ccc(C)c([N+](=O)[O-])c1)S(=O)(=O)c1ccc(OC)cc1 | > 40000 |  |  |
| COc1ccc(S(=O)(=O)N(Cc2ccc3c(c2)OCO3)[C@H](CCC(=O)NCc2ccc(-c3ccccc3)cc2)C(=O)NO)cc1 | 11 |  |  |
| COC(=O)CC[C@H](C(=O)NO)N(Cc1ccc(Br)cc1)S(=O)(=O)c1ccc(OC)cc1 | > 40000 |  |  |
| COc1ccc(S(=O)(=O)N(Cc2ccc3c(c2)OCO3)[C@H](CCC(=O)N2CCN(c3ccccn3)CC2)C(=O)NO)cc1 | 210 |  |  |
| COc1ccc(S(=O)(=O)N(Cc2ccc3c(c2)OCO3)[C@H](CCC(=O)N2CCN(C(=O)c3ccco3)CC2)C(=O)NO)cc1 | 40 |  |  |
| COC(=O)CC[C@H](C(=O)NO)N(Cc1ccc(OC)cc1)S(=O)(=O)c1ccc(OC)cc1 | 15000 |  |  |
| COC(=O)CC[C@H](C(=O)NO)N(Cc1ccc(C(F)(F)F)cc1)S(=O)(=O)c1ccc(OC)cc1 | > 40000 |  |  |
| COc1ccc(S(=O)(=O)N(Cc2ccc3c(c2)OCO3)[C@H](CCC(=O)N2CCN(c3ccccc3)CC2)C(=O)NO)cc1 | 340 |  |  |
| COc1cc(C)c(S(=O)(=O)N(Cc2ccc3c(c2)OCO3)[C@H](CCC(=O)N2CCN(C(=O)OCc3ccccc3)CC2)C(=O)NO)c(C)c1C | 100 | 35000 | > 40000 |
| COC(=O)C[C@H](C(=O)NO)N(Cc1ccc2c(c1)OCO2)S(=O)(=O)c1ccc(OC)cc1 | 950 |  |  |
| COc1ccc(S(=O)(=O)N(Cc2ccc3c(c2)OCO3)[C@H](CCC(=O)N2CCN(Cc3ccccn3)CC2)C(=O)NO)cc1 | > 1000 |  |  |
| COc1ccc(S(=O)(=O)N(Cc2ccc3c(c2)OCO3)[C@H](CCC(=O)N2CCN(S(C)(=O)=O)CC2)C(=O)NO)cc1 | 340 |  |  |
| COc1ccc(S(=O)(=O)N(Cc2ccc3c(c2)OCO3)[C@H](CCC(=O)N2CCN(C(=O)Nc3cccc(OC)c3)CC2)C(=O)NO)cc1 | 105 |  |  |
| CCOC(=O)N1CCN(C(=O)CC[C@H](C(=O)NO)N(Cc2ccc3c(c2)OCO3)S(=O)(=O)c2c(C)cc(OC)c(C)c2C)CC1 | 43 | 30000 | 32000 |
| COc1ccc(S(=O)(=O)N(Cc2ccc3c(c2)OCO3)[C@H](CCC(=O)N2CCN(Cc3ccccc3)CC2)C(=O)NO)cc1 | 740 |  |  |
| COc1ccc(S(=O)(=O)N(Cc2ccc3c(c2)OCO3)[C@H](CCC(=O)N2CCN(C(=O)c3ccccc3)CC2)C(=O)NO)cc1 | 35 |  |  |
| COc1cc(C)c(S(=O)(=O)N(Cc2ccc3c(c2)OCO3)[C@H](CCC(=O)N2CCN(C(C)=O)CC2)C(=O)NO)c(C)c1C | 63 | 7000 | 37000 |
| COc1ccc(S(=O)(=O)N(Cc2ccc3c(c2)OCO3)[C@H](CCC(=O)N2CCN(C(C)=O)CC2)C(=O)NO)cc1 | 200 | 9 | 120 |
| COc1ccc(S(=O)(=O)N(Cc2ccc3c(c2)OCO3)[C@H](CCC(=O)N2CCN(C)CC2)C(=O)NO)cc1 | 1000 |  |  |
| COc1ccc(NC(=O)N2CCN(C(=O)CC[C@H](C(=O)NO)N(Cc3ccc4c(c3)OCO4)S(=O)(=O)c3ccc(OC)cc3)CC2)cc1 | 90 |  |  |
| COc1ccc(S(=O)(=O)N(Cc2ccc3c(c2)OCO3)[C@H](CCC(=O)N2CCOCC2)C(=O)NO)cc1 | 190 |  |  |
| COc1ccc(S(=O)(=O)N(Cc2ccc3c(c2)OCO3)[C@H](CCC(=O)NCC2CCCCC2)C(=O)NO)cc1 | 410 |  |  |
| COc1ccc(S(=O)(=O)N(Cc2ccc3c(c2)OCO3)[C@H](CCC(=O)N2CCN(C(=O)OCc3ccccc3)CC2)C(=O)NO)cc1 | 260 |  |  |
| COc1ccc(S(=O)(=O)N(Cc2ccc3c(c2)OCO3)[C@H](CCC(=O)NCC2CC2)C(=O)NO)cc1 | 660 |  |  |
| COc1ccc(S(=O)(=O)N(Cc2ccc3c(c2)OCO3)[C@H](CCC(=O)N2CCNCC2)C(=O)NO)cc1 | 1200 |  |  |
| CCOC(=O)N1CCN(C(=O)CC[C@H](C(=O)NO)N(Cc2ccc3c(c2)OCO3)S(=O)(=O)c2ccc(OC)cc2)CC1 | 64 | 6 | 90 |
| COc1cc(C)c(S(=O)(=O)N(Cc2ccc3c(c2)OCO3)[C@H](CCC(=O)N2CCN(c3ccccc3)CC2)C(=O)NO)c(C)c1C | 110 | 13000 | > 40000 |
| COc1ccc(S(=O)(=O)N(Cc2ccc3c(c2)OCO3)[C@H](CCC(=O)N2CCC(Cc3ccccc3)CC2)C(=O)NO)cc1 | 120 |  |  |

The remaining lines, values ahead:

| Ki [1] [nM] | Ki [2] [nM] | Ki [3] [nM] | SMILES |
| --- | --- | --- | --- |
| 33 |  |  | COc1ccc(S(=O)(=O)N(Cc2ccc3c(c2)OCO3)[C@H](CCC(=O)N(CCC#N)Cc2ccccc2)C(=O)NO)cc1 |
| 620 |  |  | COc1ccc(S(=O)(=O)N(Cc2ccc3c(c2)OCO3)[C@H](CCC(=O)N2CCN(Cc3cccnc3)CC2)C(=O)NO)cc1 |
| 98 |  |  | COc1ccc(S(=O)(=O)N(Cc2ccc3c(c2)OCO3)[C@H](CCC(=O)NCc2ccccc2)C(=O)NO)cc1 |
| 1300 |  |  | CCN(CC)C(=O)CC[C@H](C(=O)NO)N(Cc1ccc2c(c1)OCO2)S(=O)(=O)c1ccc(OC)cc1 |
| 100 |  |  | COc1ccc(S(=O)(=O)N(Cc2ccc3c(c2)OCO3)[C@H](CCC(=O)N(CCc2ccccc2)Cc2ccccc2)C(=O)NO)cc1 |
| 530 |  |  | COc1ccc(S(=O)(=O)N(Cc2ccc3c(c2)OCO3)[C@H](CCC(=O)NCc2ccccn2)C(=O)NO)cc1 |
| 400 |  |  | COc1ccc(S(=O)(=O)N(Cc2ccc3c(c2)OCO3)[C@H](CCC(=O)N(Cc2ccccc2)Cc2ccccc2)C(=O)NO)cc1 |
| 20 |  |  | COc1ccc(S(=O)(=O)N(Cc2ccc3c(c2)OCO3)[C@H](CCC(=O)NCCC(C)C)C(=O)NO)cc1 |
| 330 |  |  | COc1ccc(S(=O)(=O)N(Cc2ccc3c(c2)OCO3)[C@H](CCC(=O)N(C)C)C(=O)NO)cc1 |
| > 1000 |  |  | COc1ccc(S(=O)(=O)N(Cc2ccc3c(c2)OCO3)[C@H](CCC(=O)N2CCN(Cc3ccncc3)CC2)C(=O)NO)cc1 |
| 480 |  |  | COc1ccc(S(=O)(=O)N(Cc2ccc3c(c2)OCO3)[C@H](CCC(=O)N(CCC#N)Cc2cccnc2)C(=O)NO)cc1 |
| 300 |  |  | COC(=O)CC[C@H](C(=O)NO)N(Cc1ccc2c(c1)OCO2)S(=O)(=O)c1ccc(OC)cc1 |
| 1200 |  |  | CCNC(=O)CC[C@H](C(=O)NO)N(Cc1ccc2c(c1)OCO2)S(=O)(=O)c1ccc(OC)cc1 |
| 160 |  |  | COc1ccc(S(=O)(=O)N(Cc2ccc3c(c2)OCO3)[C@H](CCC(=O)NCc2cccnc2)C(=O)NO)cc1 |
| 280 |  |  | COc1ccc(S(=O)(=O)N(Cc2ccc3c(c2)OCO3)[C@H](CCC(=O)NCC(C)C)C(=O)NO)cc1 |
| 1170 |  |  | COc1ccc(S(=O)(=O)N(Cc2ccc3c(c2)OCO3)[C@H](CCC(=O)NCc2ccncc2)C(=O)NO)cc1 |
